Experimental data reported in the supplement of paper PMC10307832.

Tests used:
Assay in all cases: relative viability (nuclei count vs DMSO), 5 days (fraction); higher = more cells survive
Selisistat + Linsitinib = compound: C1CC(C2=C(C1)C3=C(N2)C=CC(=C3)Cl)C(=O)N [Selisistat] + C[C@]1(O)C[C@@H](c2nc(-c3ccc4ccc(-c5ccccc5)nc4c3)c3c(N)nccn32)C1 [Linsitinib] (partner 1 µM)
Outline: (§1)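 For relative viability, nuclei counts in treated wells were divided by those in vehicle wells. Lung cancer cell lines had been pin-tool dosed in 1536-well plates the day after seeding and cultured for 5 days, then fixed and stained in one step (final 0.05% Triton X-100, 1% formaldehyde, 1 ug/ml Hoechst) and imaged at 4×. Doses were one drug alone or a fixed anchor-drug dose plus five library-drug doses (not always all listed) in √10 steps, and values are duplicate-plate medians.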

Serdemetan + Crizotinib = compound: c1ccc2c(CCNc3ccc(Nc4ccncc4)cc3)c[nH]c2c1 [Serdemetan] + C[C@@H](Oc1cc(-c2cnn(C3CCNCC3)c2)cnc1N)c1c(Cl)ccc(F)c1Cl [Crizotinib] (partner 1 µM)
Outline: as §1

Serdemetan + Pemetrexed = compound: c1ccc2c(CCNc3ccc(Nc4ccncc4)cc3)c[nH]c2c1 [Serdemetan] + Nc1nc2[nH]cc(CCc3ccc(C(=O)N[C@@H](CCC(=O)O)C(=O)O)cc3)c2c(=O)[nH]1 [Pemetrexed] (partner 0.2 µM)
Outline: as §1

Serdemetan + Olaparib = compound: c1ccc2c(CCNc3ccc(Nc4ccncc4)cc3)c[nH]c2c1 [Serdemetan] + O=C(c1cc(Cc2n[nH]c(=O)c3ccccc23)ccc1F)N1CCN(C(=O)C2CC2)CC1 [Olaparib] (partner 8 µM)
Outline: as §1

Row | Cell Line | relative viability (Selisistat + Linsitinib; first compound 0.4 µM) | relative viability (Selisistat + Linsitinib; first compound 1.265 µM) | relative viability (Selisistat + Linsitinib; first compound 4 µM) | relative viability (Selisistat + Linsitinib; first compound 12.65 µM) | relative viability (Selisistat + Linsitinib; first compound 40 µM) | relative viability (Serdemetan + Crizotinib; first compound 0.04 µM) | relative viability (Serdemetan + Crizotinib; first compound 0.1265 µM) | relative viability (Serdemetan + Crizotinib; first compound 0.4 µM) | relative viability (Serdemetan + Crizotinib; first compound 1.265 µM) | relative viability (Serdemetan + Crizotinib; first compound 4 µM) | relative viability (Serdemetan + Pemetrexed; first compound 0.04 µM) | relative viability (Serdemetan + Pemetrexed; first compound 0.1265 µM) | relative viability (Serdemetan + Pemetrexed; first compound 0.4 µM) | relative viability (Serdemetan + Pemetrexed; first compound 1.265 µM) | relative viability (Serdemetan + Pemetrexed; first compound 4 µM) | relative viability (Serdemetan + Olaparib; first compound 0.04 µM) | relative viability (Serdemetan + Olaparib; first compound 0.1265 µM) | relative viability (Serdemetan + Olaparib; first compound 0.4 µM) | relative viability (Serdemetan + Olaparib; first compound 1.265 µM) | relative viability (Serdemetan + Olaparib; first compound 4 µM)
1 | SW 1573 | 0.859 | 0.823 | 0.747 | 0.904 | 0.84 | 0.851 | 0.702 | 0.761 | 0.385 | 0.207 | 0.869 | 0.851 | 0.887 | 0.689 | 0.376 | 0.571 | 0.464 | 0.445 | 0.21 | 0.296
2 | A-427 | 1.21 | 1.05 | 1.1 | 1.15 | 1.15 | 0.919 | 0.789 | 0.662 | 0.287 | 0.404 | 0.958 | 0.927 | 1.04 | 0.698 | 0.854 | 0.693 | 0.639 | 0.711 | 0.66 | 0.643
3 | NCI-H2347 | 1.05 | 0.999 | 0.733 | 0.973 | 0.979 | 0.673 | 0.699 | 0.674 | 0.506 | 0.0688 | 0.498 | 0.429 | 0.42 |  | 0.445 | 0.568 | 0.535 | 0.59 | 0.424 | 0.439
4 | NCI-H1355 | 0.903 | 0.838 |  | 0.974 | 0.996 | 0.97 | 1 | 1.02 | 1.06 | 0.781 | 1.07 | 1.02 | 0.949 | 1.05 | 0.954 | 0.672 | 0.709 | 0.648 | 0.471 | 0.566
5 | NCI-H358 | 0.722 | 0.726 |  | 0.687 | 0.68 | 0.599 | 0.566 | 0.618 | 0.593 | 0.292 | 0.173 | 0.155 | 0.18 | 0.148 | 0.163 | 0.582 | 0.507 | 0.626 | 0.595 | 0.464
6 | PC-3 [JPC-3] | 1.01 | 0.968 | 0.954 | 1 | 0.987 | 0.947 | 0.94 |  | 1.02 | 1.03 | 1.12 | 1.07 | 0.991 | 0.829 | 1.05 | 1.11 | 1.08 | 0.969 | 1.09 | 1.18
7 | NCI-H2228 | 0.857 | 0.566 | 0.562 | 0.656 | 0.598 | 0.466 | 0.284 | 0.591 | 0.237 | 0.287 | 0.349 | 0.364 | 0.325 | 0.312 | 0.253 | 0.493 | 0.458 | 0.358 | 0.301 | 0.264
8 | HOP-62 | 1.04 | 1.18 | 1.07 | 0.978 | 0.94 | 0.719 | 0.995 | 0.684 | 0.857 | 0.494 | 0.293 | 0.368 | 0.307 | 0.333 | 0.365 | 0.482 | 0.394 | 0.489 |  | 0.263
9 | HARA | 0.938 | 0.917 | 0.854 | 0.844 | 0.983 | 0.856 | 0.971 | 0.966 |  | 0.601 | 0.202 | 0.254 | 0.226 | 0.196 | 0.257 | 0.875 | 0.892 | 0.674 | 0.476 | 0.362
